Laboratory results as given in ChEMBL document CHEMBL1201862, “PubChem BioAssay data set” (2004).
Structures can show the parent of a compound that is named as a salt. Calls of active or inactive are those of the source.

Assays:
[1] = molecular target: T1, Cysteine protease ATG4B (Homo sapiens, UniProt Q9Y4P1); assay type: functional;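 note: Fluorescence-based dose-response confirmation assay measuring inhibition of ATG4B activity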
T1 sequence (Q9Y4P1 whole entry): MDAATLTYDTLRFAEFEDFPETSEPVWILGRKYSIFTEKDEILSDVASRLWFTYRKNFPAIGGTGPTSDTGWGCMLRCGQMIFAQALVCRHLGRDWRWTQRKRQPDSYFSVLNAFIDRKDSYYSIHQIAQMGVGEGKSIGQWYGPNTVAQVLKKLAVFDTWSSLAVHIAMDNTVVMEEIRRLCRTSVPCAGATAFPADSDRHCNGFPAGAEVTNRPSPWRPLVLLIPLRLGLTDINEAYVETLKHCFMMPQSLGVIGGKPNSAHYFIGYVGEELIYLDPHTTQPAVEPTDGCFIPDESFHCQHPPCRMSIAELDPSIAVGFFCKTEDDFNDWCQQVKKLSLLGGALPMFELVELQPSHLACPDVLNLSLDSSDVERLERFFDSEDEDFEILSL

[2] = molecular target: Phospholipase A2 (Homo sapiens, UniProt P04054); assay type: functional;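 note: confirmatory dose-response counterscreen on phospholipase A2, testing hits that came from an ultra-high-throughput screen for ATG4B inhibitors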
Sequence of Phospholipase A2 (P04054 whole entry): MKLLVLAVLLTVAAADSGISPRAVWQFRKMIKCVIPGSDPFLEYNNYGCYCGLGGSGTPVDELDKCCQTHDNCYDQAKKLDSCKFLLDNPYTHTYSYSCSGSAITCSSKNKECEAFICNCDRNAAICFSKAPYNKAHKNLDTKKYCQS

[3] = tested on: Vero; assay: Vero cell cytotoxicity, cytotoxicity control for flavivirus capping enzyme inhibitors (AID 588742); assay type: functional; details: Chlorocebus sabaeus
[4] = molecular target: Genome polyprotein (dengue virus type 2, UniProt P29990); assay: Dengue-2 NS5 methyltransferase inhibitors, primary screen, biochemical, confirmation dose response (AID 588689); assay type: functional
[5] = molecular target: Dual specificity tyrosine-phosphorylation-regulated kinase 1A (Rattus norvegicus, UniProt Q63470); assay type: biochemical, Homo sapiens
[6] = molecular target: T2, Long-chain-fatty-acid--AMP ligase FadD28 (Mycobacterium tuberculosis, UniProt P9WQ59); assay: Fluorescence polarization aasay to screen for inhibitors that compete for the binding of FadD28 to a bisubstrate Measured in Biochemical System Using Plate Reader - 2147-01_Inhibitor_Dose_CherryPick_Activity.; assay type: functional, Mycobacterium tuberculosis H37Rv
T2 sequence (P9WQ59 whole entry): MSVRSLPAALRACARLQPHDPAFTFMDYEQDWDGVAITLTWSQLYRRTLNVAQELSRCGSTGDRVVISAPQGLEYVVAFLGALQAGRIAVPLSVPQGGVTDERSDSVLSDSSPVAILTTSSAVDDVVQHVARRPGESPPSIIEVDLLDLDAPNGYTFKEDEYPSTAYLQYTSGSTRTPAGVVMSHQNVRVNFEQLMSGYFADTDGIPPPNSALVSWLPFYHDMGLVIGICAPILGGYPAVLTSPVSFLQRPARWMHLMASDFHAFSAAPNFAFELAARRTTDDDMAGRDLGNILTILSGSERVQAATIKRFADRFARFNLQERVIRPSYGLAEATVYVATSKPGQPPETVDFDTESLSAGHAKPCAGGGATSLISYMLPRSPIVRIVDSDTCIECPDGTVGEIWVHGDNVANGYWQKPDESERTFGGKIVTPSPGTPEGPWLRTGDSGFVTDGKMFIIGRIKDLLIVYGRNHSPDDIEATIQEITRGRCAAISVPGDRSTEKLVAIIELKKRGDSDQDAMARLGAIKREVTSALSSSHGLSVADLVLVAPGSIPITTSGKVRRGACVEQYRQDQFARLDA

[7] = molecular target: T3, Histone-lysine N-methyltransferase NSD2 (Homo sapiens, UniProt O96028); assay type: biochemical
T3 sequence (O96028 whole entry): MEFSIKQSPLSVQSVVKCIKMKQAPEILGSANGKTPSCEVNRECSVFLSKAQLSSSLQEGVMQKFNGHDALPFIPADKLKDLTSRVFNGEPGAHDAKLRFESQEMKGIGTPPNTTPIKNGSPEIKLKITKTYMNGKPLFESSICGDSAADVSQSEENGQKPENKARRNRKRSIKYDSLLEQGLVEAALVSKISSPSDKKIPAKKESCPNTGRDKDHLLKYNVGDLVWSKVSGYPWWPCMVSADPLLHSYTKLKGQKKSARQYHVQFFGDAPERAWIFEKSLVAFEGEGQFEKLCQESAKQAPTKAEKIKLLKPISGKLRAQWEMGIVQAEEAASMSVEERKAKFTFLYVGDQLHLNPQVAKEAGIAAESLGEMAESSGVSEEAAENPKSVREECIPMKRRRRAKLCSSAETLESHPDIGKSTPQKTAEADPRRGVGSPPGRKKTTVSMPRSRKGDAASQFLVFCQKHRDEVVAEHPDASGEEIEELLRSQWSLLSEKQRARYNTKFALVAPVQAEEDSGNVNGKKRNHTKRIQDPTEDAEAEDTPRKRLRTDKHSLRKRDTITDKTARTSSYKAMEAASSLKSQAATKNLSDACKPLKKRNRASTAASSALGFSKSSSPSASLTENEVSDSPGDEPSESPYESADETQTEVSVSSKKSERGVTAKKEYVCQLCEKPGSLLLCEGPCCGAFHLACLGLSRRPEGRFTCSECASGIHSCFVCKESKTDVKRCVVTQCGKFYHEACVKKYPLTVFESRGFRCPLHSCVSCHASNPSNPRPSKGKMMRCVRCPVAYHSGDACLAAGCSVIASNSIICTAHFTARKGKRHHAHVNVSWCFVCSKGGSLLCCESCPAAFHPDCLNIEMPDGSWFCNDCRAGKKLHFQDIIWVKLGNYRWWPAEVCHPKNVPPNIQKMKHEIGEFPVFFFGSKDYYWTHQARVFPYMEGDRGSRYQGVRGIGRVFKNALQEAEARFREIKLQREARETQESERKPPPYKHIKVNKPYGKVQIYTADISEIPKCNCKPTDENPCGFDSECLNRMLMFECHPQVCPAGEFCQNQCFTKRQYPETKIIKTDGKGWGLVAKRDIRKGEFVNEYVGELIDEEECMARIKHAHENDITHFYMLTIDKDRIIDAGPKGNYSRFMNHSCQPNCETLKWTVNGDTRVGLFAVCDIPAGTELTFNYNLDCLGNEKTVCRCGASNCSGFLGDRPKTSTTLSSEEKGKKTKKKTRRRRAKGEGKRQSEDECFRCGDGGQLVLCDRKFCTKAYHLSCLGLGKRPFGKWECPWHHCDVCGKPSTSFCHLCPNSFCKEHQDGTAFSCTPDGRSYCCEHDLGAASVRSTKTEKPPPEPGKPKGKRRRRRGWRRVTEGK

[8] = molecular target: T4, Tyrosyl-DNA phosphodiesterase 2 (Homo sapiens, UniProt O95551); assay: human TDP2 enzyme inhibitors, dose response, biochemical, epi absorbance, IC50 (AID 743297)
T4 sequence (O95551 whole entry): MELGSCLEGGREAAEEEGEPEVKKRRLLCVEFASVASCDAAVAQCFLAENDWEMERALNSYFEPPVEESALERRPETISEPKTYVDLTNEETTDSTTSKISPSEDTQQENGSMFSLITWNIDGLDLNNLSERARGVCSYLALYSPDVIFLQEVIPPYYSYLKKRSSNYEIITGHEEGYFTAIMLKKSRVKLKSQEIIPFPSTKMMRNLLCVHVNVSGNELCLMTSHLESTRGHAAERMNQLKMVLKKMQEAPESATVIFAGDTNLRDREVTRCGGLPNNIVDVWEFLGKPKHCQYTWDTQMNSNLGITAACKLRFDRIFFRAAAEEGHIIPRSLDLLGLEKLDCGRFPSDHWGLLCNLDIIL

[9] = THP-1 cell cytotoxicity, dose response, cytotoxicity control for Vif-APOBEC3G degradation inhibitor project, THP-1 cells (AID 1117359); assay type: functional; details: Human immunodeficiency virus 1, THP-1
[10] = molecular target: Glutathione-S-transferase (Schistosoma japonicum, UniProt Q26513); assay: biotin-GST/anti-GST TR-FRET signal inhibitors, dose response, artefact control for Vif-APOBEC3G degradation inhibitor project, biochemical (AID 1117362); assay type: functional
Sequence of Glutathione-S-transferase (Q26513 whole entry): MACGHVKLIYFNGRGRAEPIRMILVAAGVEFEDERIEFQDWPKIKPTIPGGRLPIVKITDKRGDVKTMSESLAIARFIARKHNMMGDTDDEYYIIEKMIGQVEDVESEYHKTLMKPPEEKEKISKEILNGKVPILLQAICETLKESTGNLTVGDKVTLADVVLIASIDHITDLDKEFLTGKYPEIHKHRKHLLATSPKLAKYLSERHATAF

[11] = molecular target: Aryl hydrocarbon receptor (Homo sapiens, UniProt P35869); assay: Luminescence-based cell-based high throughput dose response assay for activators of the Aryl Hydrocarbon Receptor (AHR). [Related pubchem assays: 2796 (Primary screen (AHR activators in singlicate)), 2845 (Confirmation screen (AHR activators in triplicate)), 434939 (Counterscreen (PXR activators in triplicate)), 2804 (Summary (AHR activators))]; assay type: ADME
Sequence of Aryl hydrocarbon receptor (P35869 whole entry): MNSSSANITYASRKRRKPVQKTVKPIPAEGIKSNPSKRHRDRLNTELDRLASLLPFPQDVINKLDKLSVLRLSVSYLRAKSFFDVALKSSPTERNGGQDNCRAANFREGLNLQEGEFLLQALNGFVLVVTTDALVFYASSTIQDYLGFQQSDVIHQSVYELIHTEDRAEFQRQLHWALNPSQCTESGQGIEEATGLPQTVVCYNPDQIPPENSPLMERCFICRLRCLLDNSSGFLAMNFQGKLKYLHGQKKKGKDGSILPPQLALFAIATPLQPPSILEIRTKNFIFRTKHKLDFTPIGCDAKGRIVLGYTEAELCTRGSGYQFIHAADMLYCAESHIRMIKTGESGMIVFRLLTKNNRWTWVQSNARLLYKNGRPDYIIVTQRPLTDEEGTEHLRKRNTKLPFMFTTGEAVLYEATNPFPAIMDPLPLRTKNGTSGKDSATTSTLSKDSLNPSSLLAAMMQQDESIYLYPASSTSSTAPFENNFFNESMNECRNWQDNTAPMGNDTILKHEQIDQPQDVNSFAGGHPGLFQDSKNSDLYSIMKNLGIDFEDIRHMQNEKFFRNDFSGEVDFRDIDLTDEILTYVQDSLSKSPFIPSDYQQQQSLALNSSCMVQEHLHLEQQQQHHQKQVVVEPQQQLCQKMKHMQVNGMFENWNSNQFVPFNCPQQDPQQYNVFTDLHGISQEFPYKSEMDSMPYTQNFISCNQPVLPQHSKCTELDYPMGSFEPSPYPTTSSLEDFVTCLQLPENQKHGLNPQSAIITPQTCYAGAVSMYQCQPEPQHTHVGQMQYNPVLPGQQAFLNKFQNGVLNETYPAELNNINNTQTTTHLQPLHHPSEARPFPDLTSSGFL

[12] = molecular target: Mitogen-activated protein kinase 10 (Homo sapiens, UniProt P53779); assay: Dose response biochemical screening assay for inhibitors of c-Jun N-Terminal Kinase 3 (JNK3). [Related pubchem assays: 746 ]
Sequence of Mitogen-activated protein kinase 10 (P53779 whole entry): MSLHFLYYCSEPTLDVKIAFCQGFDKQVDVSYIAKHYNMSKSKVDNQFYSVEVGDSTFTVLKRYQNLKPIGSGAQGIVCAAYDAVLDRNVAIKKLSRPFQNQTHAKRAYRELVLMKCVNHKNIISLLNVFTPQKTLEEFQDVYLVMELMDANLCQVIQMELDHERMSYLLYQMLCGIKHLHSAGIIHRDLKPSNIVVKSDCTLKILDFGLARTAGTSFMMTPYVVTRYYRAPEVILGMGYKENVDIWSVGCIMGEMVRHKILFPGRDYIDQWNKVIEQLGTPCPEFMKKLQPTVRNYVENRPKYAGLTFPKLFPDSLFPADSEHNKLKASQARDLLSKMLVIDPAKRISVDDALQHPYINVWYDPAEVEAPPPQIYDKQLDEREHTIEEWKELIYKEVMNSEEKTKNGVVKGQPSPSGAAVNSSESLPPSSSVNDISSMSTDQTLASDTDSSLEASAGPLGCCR

[13] = M. tuberculosis growth inhibition, HTS (AID 449762); assay type: functional
[14] = molecular target: Peroxisome proliferator-activated receptor gamma/Nuclear receptor corepressor 2 (Homo sapiens, UniProt P37231+Q9Y618); assay: Counterscreen for NR2E3 inverse agonists: TR-FRET-based biochemical high throughput dose response assay to identify inverse agonists of the interaction between peroxisome proliferator-activated receptor gamma (PPARg) and nuclear receptor co-repressor 2 (NCOR2).; assay type: functional
Sequence of Peroxisome proliferator-activated receptor gamma/Nuclear receptor corepressor 2 (P37231 whole entry): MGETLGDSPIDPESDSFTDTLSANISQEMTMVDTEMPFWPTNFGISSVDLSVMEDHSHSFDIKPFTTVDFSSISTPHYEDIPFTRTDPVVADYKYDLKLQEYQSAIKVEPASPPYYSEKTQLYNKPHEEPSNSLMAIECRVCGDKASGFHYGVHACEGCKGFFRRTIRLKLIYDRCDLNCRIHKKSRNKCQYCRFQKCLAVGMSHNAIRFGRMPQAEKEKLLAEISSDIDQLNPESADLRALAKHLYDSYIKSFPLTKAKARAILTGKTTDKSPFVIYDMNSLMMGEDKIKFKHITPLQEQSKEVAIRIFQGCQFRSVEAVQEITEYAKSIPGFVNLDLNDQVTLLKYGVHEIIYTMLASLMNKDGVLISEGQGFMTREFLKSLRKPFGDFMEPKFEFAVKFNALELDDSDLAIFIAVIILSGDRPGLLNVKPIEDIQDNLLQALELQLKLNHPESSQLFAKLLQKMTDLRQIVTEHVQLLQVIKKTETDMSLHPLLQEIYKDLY
Sequence of Peroxisome proliferator-activated receptor gamma/Nuclear receptor corepressor 2 (Q9Y618 whole entry): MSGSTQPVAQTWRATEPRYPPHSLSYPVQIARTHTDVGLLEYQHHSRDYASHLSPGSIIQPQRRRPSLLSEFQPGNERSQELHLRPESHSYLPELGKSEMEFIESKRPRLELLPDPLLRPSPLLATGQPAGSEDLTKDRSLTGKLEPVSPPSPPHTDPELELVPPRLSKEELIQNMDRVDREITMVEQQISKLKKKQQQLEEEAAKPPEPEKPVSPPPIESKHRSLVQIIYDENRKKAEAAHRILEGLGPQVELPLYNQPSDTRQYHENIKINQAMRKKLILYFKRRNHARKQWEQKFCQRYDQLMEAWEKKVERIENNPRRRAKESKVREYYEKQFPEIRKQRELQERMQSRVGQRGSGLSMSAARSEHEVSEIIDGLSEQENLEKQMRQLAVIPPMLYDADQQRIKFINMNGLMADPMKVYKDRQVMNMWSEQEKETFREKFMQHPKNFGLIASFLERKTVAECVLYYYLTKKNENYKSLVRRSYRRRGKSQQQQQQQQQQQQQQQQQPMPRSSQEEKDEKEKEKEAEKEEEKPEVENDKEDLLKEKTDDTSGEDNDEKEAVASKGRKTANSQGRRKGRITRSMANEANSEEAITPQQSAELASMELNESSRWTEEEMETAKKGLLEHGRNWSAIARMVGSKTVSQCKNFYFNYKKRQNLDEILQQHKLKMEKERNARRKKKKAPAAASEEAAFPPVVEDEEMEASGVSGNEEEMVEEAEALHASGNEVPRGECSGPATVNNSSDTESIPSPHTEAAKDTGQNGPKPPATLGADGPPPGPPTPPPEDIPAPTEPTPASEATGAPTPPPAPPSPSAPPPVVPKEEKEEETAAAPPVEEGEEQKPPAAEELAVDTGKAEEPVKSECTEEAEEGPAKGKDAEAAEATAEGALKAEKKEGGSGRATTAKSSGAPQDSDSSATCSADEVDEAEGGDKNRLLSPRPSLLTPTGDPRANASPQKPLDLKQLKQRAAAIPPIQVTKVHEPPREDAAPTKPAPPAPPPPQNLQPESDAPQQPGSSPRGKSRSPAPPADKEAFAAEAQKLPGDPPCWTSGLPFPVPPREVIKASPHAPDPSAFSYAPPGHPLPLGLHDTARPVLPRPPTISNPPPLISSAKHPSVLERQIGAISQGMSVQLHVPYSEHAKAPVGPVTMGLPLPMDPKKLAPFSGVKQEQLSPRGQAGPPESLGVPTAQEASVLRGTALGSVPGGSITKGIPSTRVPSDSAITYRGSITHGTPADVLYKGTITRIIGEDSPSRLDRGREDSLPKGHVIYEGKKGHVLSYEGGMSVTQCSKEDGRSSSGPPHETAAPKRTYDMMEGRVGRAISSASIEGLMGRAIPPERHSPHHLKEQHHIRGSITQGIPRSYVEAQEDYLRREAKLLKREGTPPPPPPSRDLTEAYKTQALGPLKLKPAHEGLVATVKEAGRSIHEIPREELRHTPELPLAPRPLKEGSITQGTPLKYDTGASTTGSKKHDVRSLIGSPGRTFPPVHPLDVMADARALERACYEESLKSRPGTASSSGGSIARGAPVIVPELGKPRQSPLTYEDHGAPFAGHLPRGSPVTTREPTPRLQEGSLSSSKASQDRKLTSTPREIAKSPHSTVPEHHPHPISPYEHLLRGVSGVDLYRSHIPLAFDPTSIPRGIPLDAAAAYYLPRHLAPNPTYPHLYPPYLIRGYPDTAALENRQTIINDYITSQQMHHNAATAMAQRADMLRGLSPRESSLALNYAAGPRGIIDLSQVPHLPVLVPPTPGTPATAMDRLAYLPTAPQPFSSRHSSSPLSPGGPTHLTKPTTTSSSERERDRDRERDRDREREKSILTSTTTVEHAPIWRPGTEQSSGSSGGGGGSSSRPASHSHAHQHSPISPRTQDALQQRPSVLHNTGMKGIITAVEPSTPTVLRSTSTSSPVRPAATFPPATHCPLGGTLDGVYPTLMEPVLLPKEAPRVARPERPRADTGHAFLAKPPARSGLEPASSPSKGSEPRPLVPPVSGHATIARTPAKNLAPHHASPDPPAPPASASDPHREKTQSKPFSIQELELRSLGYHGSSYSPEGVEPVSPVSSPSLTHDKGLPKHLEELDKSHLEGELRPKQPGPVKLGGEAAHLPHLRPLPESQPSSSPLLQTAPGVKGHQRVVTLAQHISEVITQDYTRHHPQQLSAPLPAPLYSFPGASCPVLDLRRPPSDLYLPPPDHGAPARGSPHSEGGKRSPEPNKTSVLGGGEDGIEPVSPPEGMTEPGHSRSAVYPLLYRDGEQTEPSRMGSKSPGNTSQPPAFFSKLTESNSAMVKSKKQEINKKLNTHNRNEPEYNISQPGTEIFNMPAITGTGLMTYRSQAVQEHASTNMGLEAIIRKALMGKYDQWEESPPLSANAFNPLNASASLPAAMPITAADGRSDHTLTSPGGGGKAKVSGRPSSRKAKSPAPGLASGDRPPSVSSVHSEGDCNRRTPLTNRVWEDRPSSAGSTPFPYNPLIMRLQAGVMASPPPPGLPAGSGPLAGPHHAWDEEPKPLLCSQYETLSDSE

[15] = molecular target: Photoreceptor-specific nuclear receptor (Homo sapiens, UniProt Q9Y5X4); assay: NR2E3 inverse agonists, dose response, biochemical, TR-FRET (AID 463256); assay type: functional
[16] = Luminescence Cell-Based Dose Confirmation HTS to Identify Activators of 5'UTR Stem-Loop Driven Alpha-Synuclein mRNA Translation in H4 Neuroglioblastoma Cells. [Related pubchem assays: 1829 (Project Summary), 1814 (Primary HTS)]; assay type: functional
[17] = Luminescence Cell-Based Dose Response HTS to Identify Activators of Luciferase Translation or Activity in H4 […] Cells. [Related pubchem assays: 1829 (Project Summary), 1814 (Primary HTS)]; assay type: functional
[18] = tested on: H4; assay: Luminescence Cell-Based Dose Response HTS to Identify Activators of 5'UTR Stem-Loop Driven Prion Protein mRNA Translation in H4 Neuroglioblastoma Cells. [Related pubchem assays: 1829 (Project Summary), 1814 (Primary HTS)]; assay type: functional; details: Homo sapiens
[19] = molecular target: Heat shock protein HSP 90-alpha (Homo sapiens, UniProt P07900); assay: Luminescence-based dose response biochemical high throughput screening assay for inhibitors of the Heat Shock Protein 90 (HSP90). [Related pubchem assays: 1831 (Summary AID.), 1846 (Confirmation screen.), 1789 (Primary screen.)]
[20] = tested on: Vero; assay: West Nile virus antiviral activity, cell-based, CPE readout (AID 1621); assay type: functional; details: Chlorocebus sabaeus
[21] = Dose-response inhibition of insulin secretion in a rat insulinoma line at 5 mM glucose (AID 1117331); assay type: functional, cell-based; details: INS-1E
[22] = cells; assay type: functional, cell-based; details: INS-1E
[23] = molecular target: Cytochrome P450 2C19 (Homo sapiens, UniProt P33261); assay: qHTS Assay for Inhibitors and Substrates of Cytochrome P450 2C19. [Related pubchem assays: 410 ]; assay type: ADME; details: read-out: Potency
[24] = HEK293 cell cytotoxicity, dose response, cytotoxicity control, ATP luminescence, dry powder, set 3 (AID 743131); assay type: functional, cell-based
[25] = HepG2 cell cytotoxicity, dose response, cytotoxicity control, ATP luminescence, dry powder, set 2 (AID 743129); assay type: functional, cell-based
[26] = Concentration-dependent survival of SW480 colon cancer line, luminescence detection with CellTiter-Glo, half-maximal inhibitory concentration (AID 1117338); assay type: functional
[27] = RKO cell viability reduction, dose response, CellTiter-Glo luminescence (AID 1117322); assay type: functional
[28] = SNU-C1 cell viability reduction, dose response, CellTiter-Glo luminescence (AID 1117323); assay type: functional, cell-based
[29] = cytotoxicity toward Colo320 cells – cell-based, CellTiter-Glo luminescence, IC50, dose response (AID 1117334); assay type: functional; details: COLO 320
[30] = cytotoxicity toward HT-29 cells – cell-based, CellTiter-Glo luminescence, IC50, dose response (AID 1117330); assay type: functional
[31] = CellTiter-Glo luminescent dose response of DLD-1 viability loss (AID 1117352); assay type: functional
[32] = HCT116 cell viability decrease, GSK3B pretreatment – CellTiter-Glo, IC50, dose response (AID 1117339); assay type: functional; details: HCT-116
[33] = HepG2 cell cytotoxicity, dose response, cytotoxicity control, plate reader, dry powder, set 6 (AID 743311); assay type: functional, cell-based
[34] = A549 cell cytotoxicity, dose response, cytotoxicity control, plate reader, dry powder, set 6 (AID 743312); assay type: functional, cell-based
[35] = cells; details: HEK293

## CN1CCN(C2=C(Cl)C(=O)c3ccccc3C2=O)CC1
[1]
  IC50: 2.02 µM (active)
[2]
  IC50: 58.9 µM (inactive)
[3]
  CC50: 11.8 µM (active)
[4]
  IC50: 6.33 µM (active)
[5]
  AC50: 1.03 µM (active)
[6]
  AC50: > 100 µM (inactive)
[7]
  AC50: 0.108 µM (active)
[8]
  IC50: 0.581 µM (active)
[9]
  CC50: 6.22 µM (active)
[10]
  IC50: > 100 µM (active)

## COc1cc2nc(-c3cccc(F)c3)cc(O)c2cc1OC
[11]
  EC50: 5.44 µM (active)

## CCOC(=O)c1ccc2[nH]c3c(c2c1)CCCCC3=O
[12]
  IC50: > 93.1 µM (not active)

## CC(=O)CCSc1ncnc2sc(-c3ccccc3)cc12
[13]
  IC50: > 100 µM (active)

## CCN(CC)S(=O)(=O)c1ccc(OC)c(NC(=O)COc2ccc3c(C)cc(=O)oc3c2)c1
[14]
  IC50: 2.14 µM (active)
[15]
  IC50: 2.35 µM (active)

## Cc1cc(NO)nc(-c2ccc(Br)cc2)n1
[16]
  EC50: 0.405 µM (active)
[17]
  EC50: 22.8 µM (active)
[18]
  EC50: 40.2 µM (active)
[19]
  IC50: 0.728 µM (active)

## Cc1cc(C)cc(SCc2noc(C(=O)NCCN(C)C)c2C(=O)NCCN(C)C)c1
[20]
  IC50: 26.9 µM (active)

## Nc1c2c(nc3c1CCC3)CCCC2
[21]
  IC50: 11.7 µM (inactive)
[22]
  IC50: > 33.3 µM (inactive)

## O=c1cc(-c2cccc(O)c2)oc2c(O)c(O)ccc12
[23]
  AC50: 15.8 µM (inconclusive)

## CCOC(=O)c1c(NC(=O)CN2CCN(C)CC2)sc(C)c1-c1ccc(C)cc1
[24]
  AC50: 1.74 µM (active)
[25]
  AC50: 16.7 µM (active)

## CCc1cccc(N(C)C(=N)Nc2cccc3ccccc23)c1 [APTIGANEL HYDROCHLORIDE]
[26]
  IC50: > 20 µM (inactive)
[27]
  IC50: > 20 µM (inactive)
[28]
  IC50: > 20 µM (inactive)
[29]
  IC50: > 20 µM (inactive)
[30]
  IC50: > 20 µM (inactive)
[31]
  IC50: > 20 µM (inactive)
[32]
  IC50: > 20 µM (inactive)

## NCC(=O)Nc1ccc(-n2nc(C(F)(F)F)cc2-c2ccc3c(ccc4ccccc43)c2)cc1 [AR-12]
[33]
  AC50: 8.29 µM (active)
[34]
  AC50: 18.3 µM (active)
[35]
  AC50: 4.39 µM (active)
